We go through one compound from patent US11844777B2, “Methods of treating autoimmune microvascular disorders” (PRIMUS PHARMACEUTICALS, INC., priority 2017, dated 2023).

The subject of data set [1] is streptozotocin-induced diabetic hamster cheek pouch. The note with it: cited from earlier work.
The conditions of data set [2]: cited from earlier work.
Data set [3] has as its system leukocyte and endothelial cell adhesion molecules. To be noted: variety of ischemia/reperfusion models; cited from earlier work.
Data set [4] concerns hamster cheek pouch. The note with it: pretreatment with 2, 20, 80 and 160 mg/kg/d; ischemia/reperfusion; cited from earlier work.
Data set [5] deals with digital ulcers. As to the kind of experiment: randomized, double blind, placebo controlled clinical trial of diosmin on digital ulcers. Type of data set: in vivo, human. As for the experimental part:
To evaluate the effect of diosmin on Raynaud's and digital ulcers, a randomized, double blind, placebo controlled clinical trial was conducted. In this trial, subjects were randomized to receive either 600 mg of diosmin or matching placebo twice daily. The trial recorded improvement/healing of ulcers. Subjects with ulcers who were not on active ulcer therapy were required to have at least one stable or worsening digital ulcer for at least one month and subjects receiving ulcer therapy were required to have at least one stable or worsening ulcer on stable therapy for at least two months and therapy was required to remain constant for the duration of the trial.

Data set [6] concerns rabbit ear veins. To be noted: 300 mg/kg/d from 7 days before to 4 days after sclerotherapy; p<0.001; cited from earlier work.

For `COc1ccc(-c2cc(=O)c3c(O)cc(O[C@@H]4O[C@H](CO[C@@H]5O[C@@H](C)[C@H](O)[C@@H](O)[C@H]5O)[C@@H](O)[C@H](O)[C@H]4O)cc3o2)cc1O` [diosmin, (7-[[6-O-(6-Deoxy-α-L-mannopyranosyl)-β-D-glucopyranosyl]oxy]-5-hydroxy-2-(3-hydroxy-4-methoxyphenyl)-4H-1-benzopyran-4-one)], in data set [1] (after reperfusion following 30 minutes of ischemia), the “number of leukocytes adhering to the endothelium after reperfusion” value is listed as “deceased as did the number of leukocytes adhering to the endothelium”. Further, the “number of capillary leaks induced by each of the test articles, bradykinin, and LTB4” value in data set [1] (pretreatment with diosmin, diabetic hamster cheek pouch) is listed as “significantly reduced”. In data set [2], the “form found in blood after oral ingestion” value was “Diosmetin”. Besides, the “overexpression of leukocyte and endothelial cell adhesion molecules” value in data set [3] was “inhibit”. Moreover, the “arteriolar vasodilation, reduction in flow velocity and decrease in functional capillary density” value in data set [4] is recorded as “reversed all these changes towards normal in a dose dependent manner”. In addition, in data set [5] (600 mg diosmin twice daily, Week 4, all digital ulcers (including 9 ulcers in 4 non-scleroderma subjects)), the “Number of New Ulcers Appearing between Baseline and Week 4” value was 14. For the same compound, in data set [5] (600 mg twice daily, Week 4, healed/total ulcers, p 0.1251 vs placebo), the “Number of Ulcers Healed at Week 4 Relative to Baseline” value is given as 18/43. Moreover, the “Number with >= 50% Improvement at Week 4 Relative to Baseline” value in data set [5] (600 mg twice daily, Week 4, improved/total ulcers, p 0.0905 vs placebo) is reported as 23/43. Further, the “% with >= 50% Improvement at Week 4 Relative to Baseline” value in data set [5] (600 mg twice daily, Week 4, p 0.0905 vs placebo) is reported as “(53.5%)”. The “% of Ulcers Healed at Week 4 Relative to Baseline” value in data set [5] (600 mg twice daily, Week 4, p 0.1251 vs placebo) was “(41.9%)”. Also, in data set [5] (600 mg twice daily, Week 8, healed/total ulcers, p 0.0113 vs placebo), the “Number of Ulcers Healed at Week 8 Relative to Baseline” value was 31/42. In addition, in data set [5] (600 mg twice daily, Week 8, healed/total ulcers, p 0.0600 vs placebo), the “Number of Ulcers Healed at Week 8 Relative to Week 4” value is on record as 18/37. For the same compound, the “Number with >= 50% Improvement at Week 8 Relative to Baseline” value in data set [5] (600 mg twice daily, Week 8, improved/total ulcers, p 0.0018 vs placebo) is 39/42. In data set [5] (600 mg twice daily, Week 8, improved/total ulcers, p 0.0207 vs placebo), the “Number with >= 50% Improvement at Week 8 Relative to Week 4” value was 25/37. Moreover, the “% with >= 50% Improvement at Week 8 Relative to Baseline” value in data set [5] (600 mg twice daily, Week 8, p 0.0018 vs placebo) was “(92.9%)”. Moreover, in data set [5] (600 mg twice daily, Week 8, p 0.0113 vs placebo), the “% of Ulcers Healed at Week 8 Relative to Baseline” value is given as “(73.8%)”. Moreover, in data set [5] (600 mg twice daily, Week 8, p 0.0207 vs placebo), the “% with >= 50% Improvement at Week 8 Relative to Week 4” value is “(67.6%)”. Besides, in data set [5] (600 mg twice daily, Week 8, p 0.0600 vs placebo), the “% of Ulcers Healed at Week 8 Relative to Week 4” value is “(48.6%)”. In addition, in data set [6], the functional capillary density entry was “preserved”; the “increase in venous and arteriolar diameter” value is listed as “prevented”; the “number of adherent leukocytes” value is given as “reduced”; the “number of capillary leakage sites” value is given as “reduced”. Also, the perivenous edema entry in data set [6] is listed as “reduced”.
